Patent US20210037830A1, “PHYTOTOXIC MICRONUTRIENT COMBINATIONS FOR SELECTIVE CONTROL OF INVASIVE PLANT SPECIES” (Edaphix, LLC, priority 2019, published 2021)
Like-named read-outs stand apart in the source and are kept apart here.

What was measured:
French marigold = conditions: in vivo; cited from earlier work
[1] = tested on: seed geranium (Pelargonium×hortorum); conditions: in combination with nitrogen, phosphorus, and potassium; cited from earlier work
humans [2] = conditions: cited from earlier work
humans [3] = conditions: 2005 carcinogen assessment guidelines; cited from earlier work
chlorophyllitic plants [4] = conditions: in vivo; cited from earlier work
chlorophyllitic plants [5] = experiment: Photosynthetic disruption by glyphosate; type: in vivo
Experimental: Extensive research has documented that plants are often sensitive to relatively minute concentrations or exposures to unique synthetic compounds or combinations of naturally occurring elements, including micronutrients. For example, glyphosate (aka ROUNDUP®, a synthetic Monsanto/Bayer product) is effective at causing photosynthetic disruption in chlorophyllitic plants at an application rate of as little as 0.75 pounds active ingredient per acre, which equates to only approximately 8 mg/square foot of application, equivalent to approximately 14 ppm application rate. The American Phytopathological Society (APS) reported that micronutrients are generally toxic when present in high amounts, although ‘high concentrations’ are not clearly defined, and little toxicity have been reported at exceptionally low micronutrient concentrations. This occurrence is known as micronutrient toxicity syndrome (MTS). […] In addition, plants can vary considerably from species to species in their susceptibility to nutrient toxicities. For example, Lee and others (1996) reported inducing seed geranium (Pelargonium×hortorum) micronutrient toxicity symptoms by applying nutrient solutions containing 0.5 mg/L B, Cu, or Zn, or as little as 0.25 mg/L Mo, in combination with nitrogen, phosphorus, and potassium. […]

Compound | concentration inducing micro-nutrient toxicity (French marigold) [ng/mL] | endocrine disruptor classification (humans [2]) | further results
[Cu] [copper] | 4000 |  | 
[Zn] [Zn, zinc] |  |  | nutrient solution concentration inducing micronutrient toxicity symptoms [1]: 0.5 mg/L
[B] [boron] | 500 | neither classified as endocrine disruptors | 
borate salts |  | neither classified as endocrine disruptors | U.S. EPA carcinogenicity classification (humans [3]): not likely to be carcinogenic to humans
OB(O)O [boric acid] |  | neither classified as endocrine disruptors | 
[Mo] [molybdenum] | 5000 |  | 
[Mn+2] [manganese] | 1000 |  | 
O=C(O)CNCP(=O)(O)O [glyphosate] |  |  | application rate effective at causing photosynthetic disruption (chlorophyllitic plants [4]): 0.75 pounds active ingredient per acre; application rate effective at causing photosynthetic disruption (chlorophyllitic plants [5]; equates to the rate per acre): approximately 8 mg/square foot; application rate effective at causing photosynthetic disruption (chlorophyllitic plants [5]; equivalent application rate): approximately 14 ppm
